Data as given in patent EP4050002A1, “ANTI-PROLIFERATIVE AGENTS” (First Health Pharmaceuticals B.V., priority 2021, dated 2022).
Read-outs that look alike come from different tables or passages of the source.

What was measured:
PBMC = test: Cytotoxicity in primary cells, ATP-based method; assay type: cell-based, human
Description: The non-specific toxicity of the compounds is evaluated in non-tumor immortalized cells with cell count and / or MTS methods, and in primary Peripheral Blood Mononuclear Cells (PBMC) with the ATP-based method.
Primary human Peripheral Blood Mononuclear Cells (PBMC) are incubated at 37°C and 5% CO2 for the viability assay with CellTiter Glo 2.0 kit, an ATP-based method (Promega, Catalog number: G9241). 48 h prior to the assay, 2 µg/ml of phytohemagglutinin-A (PHA) are added to PBMC culture and cells are incubated for 48 h at 37°C and 5% CO2. PBMC are centrifuged at 300 G for 10 minutes, then re-suspended in growth medium and plated at density of 6 x 10^4 cells/well. […]
PBMC incubated with the same amount of DMSO present in the compound dilutions are used as control. After the incubation, 50 µl of cell cultures from each well are transferred in a luminescence plate after vigorous pipetting and 50 µl of CellTiter Glo 2.0 are added in each well, then the plate is incubated in the Glomax Discovery Reader (Promega, Catalog number: GM3000) following the instructions. Relative luminescence units (RLU) calculated in each well is elaborated with GraphPad software: 100% viability is determined as the mean RLU value measured in the wells containing untreated PBMCs. IC50 was calculated by GraphPad Prism 8.0 software.

[1] = Tissue distribution in xenograft mice (conditions #1, #1A, #1B); assay type: in vivo, male FOXN1nu/nu nude mice; conditions: for Kp at 4 h: mouse, brain, ip, read-out: Brain to plasma
Description: The pharmacokinetic study was performed in male Swiss albino mice from Hylasco Biotechnology Pvt. Ltd. (A Charles River technology Licensee). The tissue distribution study was performed in male Swiss albino mice and in male FOXN1^nu/nu nude mice (Envigo spa). The efficacy study was performed in male FOXN1^nu/nu nude mice.
At study closure, animals were sacrificed and tumor and tissues removed for further studies of distribution and morphology. Mice from the efficacy study were anesthetized using gaseous anesthesia and blood samples collected in Li-Heparin containing tubes by intracardiac puncture, stored on ice, centrifuged within 15 minutes to separate plasma at 1540 ref (5000 rpm), at 4°C for 10 minutes; plasma was separated and transferred to new tubes. After blood collection, tissues for bio-analyses were separated, washed in PBS, dried and frozen at -80±10°C until homogenization.
The levels of compound in the tissues were quantified by LC-MS/MS as follows.
UHPLC-MS/MS analysis was performed on a Q-Exactive Plus (ThermoFisher Scientific) mass spectrometer coupled with an UHPLC Ultimate 3000SD (ThermoFisher Scientific).
Chromatographic separation of the analytes was performed on an Acquity UPLC BEH Shield RP18 column ([…], 2.1 mm x 50 mm, […]) with a column temperature at 40°C.
The flow rate was 250 µl/min. The mobile phase was a gradient of a mixture of 10 mM ammonium acetate with 0.1% formic acid (phase A) and Acetonitrile:Methanol (50:50 v/v) as phase B. The gradient profile used began with an elution of (A:B) 70:30 v/v for 1 min, followed by a gradual decrease of A to (A:B) 5:95 v/v until 5 min, a constant gradient for 1 min of 95% of B, then a gradual decrease of B to the initial condition until 7 min and then a final conditioning of the column for about 4 min in order to equilibrate for the next injection.
The electrospray ionization source (ESI) was operated in positive mode. Parallel reaction monitoring (PRM) methods was applied to quantify compound 5. The selected transitions m/z 414.20-243.10 for compound 5 and m/z 360.18- 243.12 for the internal standard (compound 4) were considered. Each sample was assayed in duplicate.
Preparation of plasma samples: Mouse plasma (10 µl) was placed into a tube containing 188 µl of a chilled Acetonitrile:Methanol solution (50:50 v/v) in order to precipitate proteins. Each sample was spiked with a fixed concentration (200 nM) of compound 4 used as internal standard. After 1 min of vortex, the mixture was centrifuged at 10,000 x g for 15 minutes at 4 °C to separate the protein material from the supernatant. The last one of each sample was transferred to a new sample tube and the solvent was evaporated under nitrogen stream. The dried material was re-suspended in 100 µl of mobile phase. The resulting solution was then analyzed by UHPLC-MS/MS without further modifications.
Preparation of tissue samples was as follows: the tissues of interest were washed briefly with chilled water to remove traces of blood, if necessary, and cut into small pieces, keeping them on ice during all the operations. Then the samples were transferred to a tube and homogenized in purified water using the homogenizer TissueRuptor of Qiagen. In general, 300 µl of purified water was added to 50 mg of tissue. The homogenized samples were centrifuged at 10,000 x g for 15 minutes at 4°C to pellet cell debris, and then the supernatant were transferred to a clean tube in order to perform protein precipitation using a chilled solution of Acetonitrile:Methanol (50:50 v/v) and vortexed for 1 min. Before protein precipitation a fixed concentration (200 nM) of internal standard (Compound 4) was added in every sample. After centrifugation, the supernatant was separated from protein pellet and dried under nitrogen stream. 50 µl of mobile phase was used to re-suspend each dried sample. […]

[2] = #1: single I.P. administration, 45 mg/Kg, withdrawal 4 hours after administration
[3] = #1A: two I.P. administration, 45 mg/Kg, at distance of 48 hours, withdrawal 4 hours after last administration
[4] = #1B: 6 weeks of repeated I.P. administration, 45 mg/kg, every 48 hours, withdrawal 4 hours after last administration

CCCCc1cn(-c2ccc(-c3nnc(-c4ccccc4C(F)(F)F)o3)cc2)nn1 [Compound 5]
IC50 (PBMC; Homo sapiens, PBMC, 72 hours of incubation, ATP-based method): 200 µM | toxicity (PBMC; primary human cells (Table 16)): above 100 µM | Adipose to plasma [1, 2]: 14.3 | Breast to plasma [1, 2]: 42.9 | Intestine to plasma [1, 2]: 5.8 | Kidney to plasma [1, 2]: 23.1 | Liver to plasma [1, 2]: 7.3 | Lung to plasma [1, 2]: 12.6 | Lymph node to plasma [1, 2]: 17.9 | Plasma [1, 2]: 2099.8 ng/mL | Spleen to plasma [1, 2]: 26.1 | Tumor to plasma [1, 2]: 11.3 | Adipose to plasma [1, 3]: 31.8 | Breast to plasma [1, 3]: 10.9 | Intestine to plasma [1, 3]: 4.2 | Kidney to plasma [1, 3]: 21.6 | Liver to plasma [1, 3]: 12.9 | Lung to plasma [1, 3]: 10.3 | Lymph node to plasma [1, 3]: 137.7 | Plasma [1, 3]: 2188.6 ng/mL | Spleen to plasma [1, 3]: 23.3 | Tumor to plasma [1, 3]: 39.9 | Adipose to plasma [1, 4]: 233.3 | Breast to plasma [1, 4]: 18.5 | Intestine to plasma [1, 4]: 10.9 | Kidney to plasma [1, 4]: 18.3 | Liver to plasma [1, 4]: 12.4 | Lung to plasma [1, 4]: 9.6 | Lymph node to plasma [1, 4]: 27.5 | Plasma [1, 4]: 4658.9 ng/mL | Spleen to plasma [1, 4]: 21.4 | Tumor to plasma [1, 4]: 14.9 | Kp at 4 h ([1]; 45 mg/kg, #1: single I.P. administration, 45 mg/Kg, withdrawal 4 hours after administration): 0.5 | Kp at 4 h ([1]; 45 mg/kg, #1A: two I.P. administration, 45 mg/Kg, at distance of 48 hours, withdrawal 4 hours after last administration): 1.1 | Kp at 4 h ([1]; 45 mg/kg, #1B: 6 weeks of repeated I.P. administration, 45 mg/kg, every 48 hours, withdrawal 4 hours after last administration): 0.7
